Data taken from the supplement of paper PMC10883282.
Where a name gives a salt, the structure may show the parent alone. ± gives the standard deviation of the averaged measurements.

Test system: HS729
Assay: relative viability vs DMSO control (72 h) (fraction); higher = more viable cells
Procedure, shortened: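 A 5 µM positive control and 0.1% DMSO vehicle ran alongside sarcoma cell lines seeded in 384-well plates to reach 80–90% confluence. Serially diluted compound, 2.5 µl from source plates of 10 mM to 0.0002 mM, was added after 24 h, and the plates were held 72 h at 37 °C, 5% CO2. Relative viability was worked out from ATPLite readings as percent growth averaged over up to triplicate wells. The values were rescaled so that 1 is full and 0 is none.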

Row | SMILES | relative viability (0.00017 µM) | relative viability (0.00051 µM) | relative viability (0.00152 µM) | relative viability (0.00457 µM) | relative viability (0.01372 µM) | relative viability (0.04115 µM) | relative viability (0.1235 µM) | relative viability (0.3704 µM) | relative viability (1.111 µM) | relative viability (3.333 µM) | relative viability (10 µM) | relative viability (2 pM) | relative viability (5 pM) | relative viability (15 pM) | relative viability (50 pM) | relative viability (0.00014 µM) | relative viability (0.00041 µM) | relative viability (0.0012 µM) | relative viability (0.0037 µM) | relative viability (0.011 µM) | relative viability (200 fM) | relative viability (600 fM)
1 | Cc1ccc(F)c(NC(=O)Nc2ccc(-c3cccc4[nH]nc(N)c34)cc2)c1 [Linifanib] | 1.02 ± 0.065 | 0.958 ± 0.072 | 0.937 ± 0.052 | 0.943 ± 0.077 | 0.958 ± 0.052 | 0.896 ± 0.033 | 0.83 ± 0.033 | 0.783 ± 0.018 | 0.7353 ± 0.0054 | 0.762 ± 0.049 | 0.689 ± 0.055 | – | – | – | – | – | – | – | – | – | – | –
2 | CC(C)N1CCN(Cc2cnc(-c3cc(-c4cccc5[nH]ccc45)cc4[nH]ncc34)o2)CC1 [Nemiralisib] | 1.06 ± 0.022 | 0.984 ± 0.026 | 0.98 ± 0.067 | 0.938 ± 0.038 | 0.978 ± 0.059 | 0.97 ± 0.067 | 0.892 ± 0.012 | 0.909 ± 0.063 | 0.787 ± 0.029 | 0.653 ± 0.037 | 0.52 ± 0.029 | – | – | – | – | – | – | – | – | – | – | –
3 | COCc1c(-c2cc3cc(C)cc(OC)c3s2)c2c(N)ncnn2c1CN1CCNC(=O)C1 [Rogaratinib] | 1.06 ± 0.024 | 0.957 ± 0.068 | 0.967 ± 0.036 | 0.91 ± 0.052 | 0.92 ± 0.11 | 0.882 ± 0.034 | 0.755 ± 0.041 | 0.645 ± 0.037 | 0.582 ± 0.039 | 0.485 ± 0.031 | 0.348 ± 0.024 | – | – | – | – | – | – | – | – | – | – | –
4 | Cc1cc(Nc2ncnc3ccc(NC4=NC(C)(C)CO4)cc23)ccc1Oc1ccn2ncnc2c1 [Tucatinib] | 1.05 ± 0.04 | 1.05 ± 0.028 | 1.06 ± 0.029 | 0.987 ± 0.06 | 0.974 ± 0.032 | 0.965 ± 0.061 | 0.967 ± 0.015 | 0.963 ± 0.032 | 0.957 ± 0.034 | 0.924 ± 0.071 | 0.909 ± 0.056 | – | – | – | – | – | – | – | – | – | – | –
5 | O=C(Nc1cnn2ccc(N3CCC[C@@H]3c3cc(F)ccc3F)nc12)N1CC[C@H](O)C1 [Larotrectinib] | 1.07 ± 0.041 | 0.958 ± 0.062 | 0.895 ± 0.033 | 0.874 ± 0.029 | 0.939 ± 0.019 | 0.887 ± 0.074 | 0.936 ± 0.021 | 0.905 ± 0.095 | 0.85 ± 0.013 | 0.84 ± 0.094 | 0.849 ± 0.02 | – | – | – | – | – | – | – | – | – | – | –
6 | CN1CCC(COc2cnc(-c3cccc(Cn4nc(-c5cccc(C#N)c5)ccc4=O)c3)nc2)CC1 [Tepotinib] | 1.04 ± 0.054 | 1 ± 0.048 | 0.988 ± 0.034 | 0.983 ± 0.041 | 0.941 ± 0.057 | 0.928 ± 0.055 | 0.987 ± 0.027 | 0.894 ± 0.02 | 0.926 ± 0.038 | 0.831 ± 0.029 | 0.829 ± 0.035 | – | – | – | – | – | – | – | – | – | – | –
7 | C[C@@H]1CCN(C(=O)CC#N)C[C@@H]1N(C)c1ncnc2[nH]ccc12 [Tofacitinib] | 1.03 ± 0.017 | 0.957 ± 0.029 | 0.936 ± 0.031 | 0.927 ± 0.036 | 0.889 ± 0.036 | 0.835 ± 0.065 | 0.802 ± 0.029 | 0.828 ± 0.013 | 0.861 ± 0.03 | 0.846 ± 0.02 | 0.75 ± 0.059 | – | – | – | – | – | – | – | – | – | – | –
8 | N#CC[C@H](C1CCCC1)n1cc(-c2ncnc3[nH]ccc23)cn1 [Ruxolitinib] | 1.07 ± 0.028 | 1.07 ± 0.028 | 1.06 ± 0.028 | 1.05 ± 0.027 | 1.02 ± 0.068 | 1.06 ± 0.031 | 1.01 ± 0.031 | 0.989 ± 0.035 | 0.938 ± 0.086 | 0.894 ± 0.1 | 0.764 ± 0.041 | – | – | – | – | – | – | – | – | – | – | –
9 | C=CC(=O)N1CCC[C@@H](n2nc(-c3ccc(Oc4ccccc4)cc3)c3c(N)ncnc32)C1 [Ibrutinib] | 1.04 ± 0.018 | 1.01 ± 0.051 | 0.942 ± 0.027 | 0.9505 ± 0.0054 | 0.972 ± 0.088 | 0.927 ± 0.063 | 0.907 ± 0.014 | 0.926 ± 0.03 | 0.94 ± 0.05 | 0.907 ± 0.068 | 0.762 ± 0.03 | – | – | – | – | – | – | – | – | – | – | –
10 | COc1c(OCCCN2CCOCC2)ccc2c1N=C(NC(=O)c1cnc(N)nc1)N1CCN=C21 [Copanlisib] | 1.05 ± 0.04 | 0.906 ± 0.03 | 0.919 ± 0.027 | 0.701 ± 0.12 | 0.688 ± 0.028 | 0.6016 ± 0.0023 | 0.483 ± 0.028 | 0.439 ± 0.045 | 0.324 ± 0.035 | 0.306 ± 0.022 | 0.255 ± 0.015 | – | – | – | – | – | – | – | – | – | – | –
11 | COc1cccc2c1C(=O)c1c(O)c3c(c(O)c1C2=O)C[C@@](O)(C(=O)CO)C[C@@H]3O[C@H]1C[C@H](N)[C@H](O)[C@H](C)O1 [Doxorubicin Hydrochloride] | 0.93 ± 0.021 | 0.93 ± 0.047 | 0.949 ± 0.054 | 0.946 ± 0.055 | 0.81 ± 0.029 | 0.6943 ± 0.0048 | 0.525 ± 0.041 | 0.303 ± 0.017 | 0.258 ± 0.0095 | 0.136 ± 0.0072 | 0.118 ± 0.0061 | – | – | – | – | – | – | – | – | – | – | –
12 | CO[C@H]1C[C@@H]2CC[C@@H](C)[C@@](O)(O2)C(=O)C(=O)N2CCCC[C@H]2C(=O)O[C@H]([C@H](C)C[C@@H]2CC[C@@H](OP(C)(C)=O)[C@H](OC)C2)CC(=O)[C@H](C)/C=C(\C)[C@@H](O)[C@@H](OC)C(=O)[C@H](C)C[C@H](C)/C=C/C=C/C=C/1C [Ridaforolimus] | 0.962 ± 0.012 | 1 ± 0.045 | 0.977 ± 0.048 | 0.907 ± 0.1 | 0.923 ± 0.054 | 0.944 ± 0.0096 | 0.916 ± 0.12 | 0.924 ± 0.096 | 0.86 ± 0.14 | 0.786 ± 0.065 | 0.763 ± 0.052 | – | – | – | – | – | – | – | – | – | – | –
13 | COc1cc2nccc(Oc3ccc(NC(=O)Nc4cc(C)on4)c(Cl)c3)c2cc1OC [Tivozanib] | 0.898 ± 0.058 | 0.883 ± 0.018 | 0.9572 ± 0.0089 | 0.923 ± 0.046 | 0.921 ± 0.052 | 0.882 ± 0.017 | 0.869 ± 0.043 | 0.891 ± 0.044 | 0.894 ± 0.05 | 0.817 ± 0.0084 | 0.722 ± 0.02 | – | – | – | – | – | – | – | – | – | – | –
14 | C[C@@H](c1ccc2nccn2c1)n1nnc2ncc(-c3cnn(C)c3)nc21 [Volitinib] | 0.947 ± 0.029 | 0.978 ± 0.013 | 0.978 ± 0.031 | 1.02 ± 0.043 | 0.938 ± 0.021 | 0.952 ± 0.066 | 0.955 ± 0.061 | 1 ± 0.053 | 1 ± 0.08 | 0.97 ± 0.034 | 1.03 ± 0.042 | – | – | – | – | – | – | – | – | – | – | –
15 | COc1cc2c(cc1O)CCN[C@]21CS[C@@H]2c3c(OC(C)=O)c(C)c4c(c3[C@H](COC1=O)N1[C@@H]2[C@H]2c3c(cc(C)c(OC)c3O)C[C@@H]([C@@H]1O)N2C)OCO4 [Trabectedin] | – | – | – | – | – | – | – | – | – | – | – | 0.999 ± 0.056 | 0.952 ± 0.019 | 0.957 ± 0.067 | 0.859 ± 0.044 | 0.557 ± 0.15 | 0.137 ± 0.14 | 0.183 ± 0.041 | 0.166 ± 0.0097 | 0.124 ± 0.0083 | 1.02 ± 0.048 | 1.05 ± 0.034
16 | Cc1nc(-c2cn3c(n2)-c2ccc(-c4cnn(C(C)(C)C(N)=O)c4)cc2OCC3)n(C(C)C)n1 [Taselisib] | 0.913 ± 0.018 | 0.935 ± 0.041 | 0.893 ± 0.045 | 0.891 ± 0.076 | 0.798 ± 0.066 | 0.756 ± 0.062 | 0.644 ± 0.053 | 0.629 ± 0.019 | 0.5241 ± 0.0042 | 0.487 ± 0.013 | 0.429 ± 0.014 | – | – | – | – | – | – | – | – | – | – | –
17 | COc1cc2c(Oc3ccc4[nH]c(C)cc4c3F)ncnc2cc1OCCCN1CCCC1 [Cediranib] | 0.964 ± 0.077 | 0.991 ± 0.077 | 0.954 ± 0.044 | 0.962 ± 0.086 | 0.991 ± 0.045 | 0.968 ± 0.057 | 0.94 ± 0.059 | 0.8 ± 0.1 | 0.665 ± 0.039 | 0.834 ± 0.024 | 0.83 ± 0.026 | – | – | – | – | – | – | – | – | – | – | –
18 | Cc1nc(NC(=O)N2CCC[C@H]2C(N)=O)sc1-c1ccnc(C(C)(C)C(F)(F)F)c1 [Alpelisib] | 1 ± 0.028 | 0.935 ± 0.034 | 0.922 ± 0.087 | 0.884 ± 0.042 | 0.838 ± 0.026 | 0.785 ± 0.067 | 0.745 ± 0.06 | 0.68 ± 0.041 | 0.577 ± 0.024 | 0.536 ± 0.039 | 0.445 ± 0.0061 | – | – | – | – | – | – | – | – | – | – | –
19 | COc1cc2/c(=N/c3ccc(Br)cc3F)nc[nH]c2cc1OCC1CCN(C)CC1 [Vandetanib] | 0.915 ± 0.04 | 0.896 ± 0.083 | 0.899 ± 0.031 | 0.8994 ± 0.0041 | 0.871 ± 0.022 | 0.843 ± 0.047 | 0.857 ± 0.026 | 0.834 ± 0.068 | 0.746 ± 0.055 | 0.663 ± 0.03 | 0.028 ± 0.0075 | – | – | – | – | – | – | – | – | – | – | –
